# In PubChem BioAssay AID2060512 (Molecular Pharmacology Branch, DTP, NCI, 2025):
# Tested on: 186277-243-T-J2-PDC complex spheroid viability
# Assay: Anticancer human tumor 186277-243-T-J2-PDC patient-derived colon adenocarcinoma cell line growth inhibition [GQUAD]
# Details: for IC50: curve of first compound; for viability, T/C: stronger effect = lower value
# Procedure, shortened: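 Viability of tumor cells grown as complex spheroids with endothelial and stromal cells, exposed to drug combinations. Top concentration at or near clinical Cmax (else 10 microM), diluted in half-log increments.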
# [1] = second compound 0.0316 µM, first compound 0.0316 µM
# [2] = second compound 0.0316 µM, first compound 0.1 µM
# [3] = second compound 0.0316 µM, first compound 0.316 µM
# [4] = second compound 0.0316 µM, first compound 1 µM
# [5] = second compound 0.0316 µM, first compound 3.16 µM
# [6] = second compound 0.0316 µM, first compound 10 µM
# [7] = second compound 0.1 µM, first compound 0.0316 µM
# [8] = second compound 0.1 µM, first compound 0.1 µM
# [9] = second compound 0.1 µM, first compound 0.316 µM
# [10] = second compound 0.1 µM, first compound 1 µM
# [11] = second compound 0.1 µM, first compound 3.16 µM
# [12] = second compound 0.1 µM, first compound 10 µM
# [13] = second compound 0.316 µM, first compound 0.0316 µM
# [14] = second compound 0.316 µM, first compound 0.1 µM
# [15] = second compound 0.316 µM, first compound 0.316 µM
# [16] = second compound 0.316 µM, first compound 1 µM
# [17] = second compound 0.316 µM, first compound 3.16 µM
# [18] = second compound 0.316 µM, first compound 10 µM
# [19] = second compound 1 µM, first compound 0.0316 µM
# [20] = second compound 1 µM, first compound 0.1 µM
# [21] = second compound 1 µM, first compound 0.316 µM
# [22] = second compound 1 µM, first compound 1 µM
# [23] = second compound 1 µM, first compound 3.16 µM
# [24] = second compound 1 µM, first compound 10 µM
# [25] = second compound 3.16 µM, first compound 0.0316 µM
# [26] = second compound 3.16 µM, first compound 0.1 µM
# [27] = second compound 3.16 µM, first compound 0.316 µM
# [28] = second compound 3.16 µM, first compound 1 µM
# [29] = second compound 3.16 µM, first compound 3.16 µM
# [30] = second compound 3.16 µM, first compound 10 µM
# [31] = second compound 10 µM, first compound 0.0316 µM
# [32] = second compound 10 µM, first compound 0.1 µM
# [33] = second compound 10 µM, first compound 0.316 µM
# [34] = second compound 10 µM, first compound 1 µM
# [35] = second compound 10 µM, first compound 3.16 µM
# [36] = second compound 10 µM, first compound 10 µM
# 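Wherever viability, T/C is given: 100% = DMSO vehicle control viability.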
smiles,measurement,setting,value
CCCS(=O)(=O)Nc1ccc(F)c(C(=O)c2c[nH]c3ncc(-c4ccc(Cl)cc4)cc23)c1F + CN(C)c1ccc(Nc2c3ccc(NC(=O)CCN4CCCC4)cc3nc3cc(NC(=O)CCN4CCCC4)ccc23)cc1,IC50,second compound 0.0316 µM,5890 nM
same,IC50,second compound 0.1 µM,6440 nM
same,IC50,second compound 0.316 µM,6240 nM
same,IC50,second compound 1 µM,6270 nM
same,IC50,second compound 3.16 µM,6280 nM
same,IC50,second compound 10 µM,5820 nM
same,"viability, T/C",[1],97.2%
same,"viability, T/C",[2],101%
same,"viability, T/C",[3],90.2%
same,"viability, T/C",[4],78.8%
same,"viability, T/C",[5],77.9%
same,"viability, T/C",[6],30.3%
same,"viability, T/C",[7],95.2%
same,"viability, T/C",[8],81.4%
same,"viability, T/C",[9],83.6%
same,"viability, T/C",[10],84.6%
same,"viability, T/C",[11],95.8%
same,"viability, T/C",[12],26.2%
same,"viability, T/C",[13],89.1%
same,"viability, T/C",[14],102%
same,"viability, T/C",[15],86.3%
same,"viability, T/C",[16],87%
same,"viability, T/C",[17],82.7%
same,"viability, T/C",[18],27.7%
same,"viability, T/C",[19],90.3%
same,"viability, T/C",[20],93.1%
same,"viability, T/C",[21],84.4%
same,"viability, T/C",[22],98.9%
same,"viability, T/C",[23],83%
same,"viability, T/C",[24],26.7%
same,"viability, T/C",[25],92.2%
same,"viability, T/C",[26],105%
same,"viability, T/C",[27],86.5%
same,"viability, T/C",[28],90.4%
same,"viability, T/C",[29],82.5%
same,"viability, T/C",[30],28.4%
same,"viability, T/C",[31],96.9%
same,"viability, T/C",[32],91.1%
same,"viability, T/C",[33],97.9%
same,"viability, T/C",[34],87.7%
same,"viability, T/C",[35],82.3%
same,"viability, T/C",[36],22%
CC1COCCN1c1cc(C2(O)CC3CCC(C2)O3)c2cnn(-c3ccn[nH]3)c2n1 (stereo not drawn) + CN(C)c1ccc(Nc2c3ccc(NC(=O)CCN4CCCC4)cc3nc3cc(NC(=O)CCN4CCCC4)ccc23)cc1,IC50,second compound 0.0316 µM,32.6 nM
same,IC50,second compound 0.1 µM,33.1 nM
same,IC50,second compound 0.316 µM,34.7 nM
same,IC50,second compound 1 µM,< 31.6 nM
same,IC50,second compound 3.16 µM,< 31.6 nM
same,IC50,second compound 10 µM,< 31.6 nM
same,"viability, T/C",[1],51.2%
same,"viability, T/C",[2],8.79%
same,"viability, T/C",[3],6.01%
same,"viability, T/C",[4],4%
same,"viability, T/C",[5],5.01%
same,"viability, T/C",[6],3.88%
same,"viability, T/C",[7],51.8%
same,"viability, T/C",[8],12%
same,"viability, T/C",[9],7.24%
same,"viability, T/C",[10],3.82%
same,"viability, T/C",[11],4.81%
same,"viability, T/C",[12],3.87%
same,"viability, T/C",[13],53.7%
same,"viability, T/C",[14],8.92%
same,"viability, T/C",[15],4.46%
same,"viability, T/C",[16],3.99%
same,"viability, T/C",[17],5.18%
same,"viability, T/C",[18],3.41%
same,"viability, T/C",[19],42.9%
same,"viability, T/C",[20],9.66%
same,"viability, T/C",[21],5.45%
same,"viability, T/C",[22],4.14%
same,"viability, T/C",[23],5.22%
same,"viability, T/C",[24],3.81%
same,"viability, T/C",[25],47%
same,"viability, T/C",[26],12.8%
same,"viability, T/C",[27],5.73%
same,"viability, T/C",[28],3.69%
same,"viability, T/C",[29],4.72%
same,"viability, T/C",[30],3.34%
same,"viability, T/C",[31],46.5%
same,"viability, T/C",[32],11.9%
same,"viability, T/C",[33],6.88%
same,"viability, T/C",[34],3%
same,"viability, T/C",[35],3.63%
same,"viability, T/C",[36],2.56%
Cc1[nH]c2ccccc2c1CCNCc1ccc(/C=C/C(=O)NO)cc1 + Cc1[nH]c2ccc(F)cc2c1-c1nc2c3cccnc3c3ncccc3c2[nH]1,IC50,second compound 0.0316 µM,41.3 nM
same,IC50,second compound 0.1 µM,44.2 nM
same,IC50,second compound 0.316 µM,47.1 nM
same,IC50,second compound 1 µM,41.8 nM
same,IC50,second compound 3.16 µM,40.4 nM
same,IC50,second compound 10 µM,47.5 nM
same,"viability, T/C","second compound 0.0316 µM, first compound 0.000999 µM",110%
same,"viability, T/C","second compound 0.0316 µM, first compound 0.00316 µM",108%
same,"viability, T/C","second compound 0.0316 µM, first compound 0.00999 µM",104%
same,"viability, T/C",[1],62.1%
same,"viability, T/C","second compound 0.0316 µM, first compound 0.0999 µM",9.83%
same,"viability, T/C",[3],0.44%
same,"viability, T/C","second compound 0.1 µM, first compound 0.000999 µM",115%
same,"viability, T/C","second compound 0.1 µM, first compound 0.00316 µM",105%
same,"viability, T/C","second compound 0.1 µM, first compound 0.00999 µM",90.7%
same,"viability, T/C",[7],69.8%
same,"viability, T/C","second compound 0.1 µM, first compound 0.0999 µM",10.4%
same,"viability, T/C",[9],0.56%
same,"viability, T/C","second compound 0.316 µM, first compound 0.000999 µM",93.3%
same,"viability, T/C","second compound 0.316 µM, first compound 0.00316 µM",101%
same,"viability, T/C","second compound 0.316 µM, first compound 0.00999 µM",97%
same,"viability, T/C",[13],71.2%
same,"viability, T/C","second compound 0.316 µM, first compound 0.0999 µM",9.88%
same,"viability, T/C",[15],1.7%
same,"viability, T/C","second compound 1 µM, first compound 0.000999 µM",90.5%
same,"viability, T/C","second compound 1 µM, first compound 0.00316 µM",107%
same,"viability, T/C","second compound 1 µM, first compound 0.00999 µM",104%
same,"viability, T/C",[19],62.8%
same,"viability, T/C","second compound 1 µM, first compound 0.0999 µM",9.69%
same,"viability, T/C",[21],0.96%
same,"viability, T/C","second compound 3.16 µM, first compound 0.000999 µM",101%
same,"viability, T/C","second compound 3.16 µM, first compound 0.00316 µM",111%
same,"viability, T/C","second compound 3.16 µM, first compound 0.00999 µM",100%
same,"viability, T/C",[25],61.1%
same,"viability, T/C","second compound 3.16 µM, first compound 0.0999 µM",9%
same,"viability, T/C",[27],0.47%
same,"viability, T/C","second compound 10 µM, first compound 0.000999 µM",95%
same,"viability, T/C","second compound 10 µM, first compound 0.00316 µM",98.5%
same,"viability, T/C","second compound 10 µM, first compound 0.00999 µM",99.9%
same,"viability, T/C",[31],71.1%
same,"viability, T/C","second compound 10 µM, first compound 0.0999 µM",11.2%
same,"viability, T/C",[33],1.07%
O=c1[nH]cc(F)c(=O)[nH]1 + Cc1cnc(CNC(=O)c2c(=O)c3ccc(N4CCCN(C)CC4)nc3n3c2sc2ccccc23)cn1,IC50,second compound 0.0316 µM,> 10000 nM
same,IC50,second compound 0.1 µM,> 10000 nM
same,IC50,second compound 0.316 µM,> 10000 nM
same,IC50,second compound 1 µM,< 31.6 nM
same,IC50,second compound 3.16 µM,< 31.6 nM
same,IC50,second compound 10 µM,< 31.6 nM
same,"viability, T/C",[1],106%
same,"viability, T/C",[2],110%
same,"viability, T/C",[3],109%
same,"viability, T/C",[4],98.5%
same,"viability, T/C",[5],82.9%
same,"viability, T/C",[6],57%
same,"viability, T/C",[7],86.4%
same,"viability, T/C",[8],93.7%
same,"viability, T/C",[9],99.9%
same,"viability, T/C",[10],79%
same,"viability, T/C",[11],93.3%
same,"viability, T/C",[12],66.3%
same,"viability, T/C",[13],76.8%
same,"viability, T/C",[14],73.3%
same,"viability, T/C",[15],84.7%
same,"viability, T/C",[16],57.7%
same,"viability, T/C",[17],75.1%
same,"viability, T/C",[18],55.1%
same,"viability, T/C",[19],47.9%
same,"viability, T/C",[20],56.3%
same,"viability, T/C",[21],50.7%
same,"viability, T/C",[22],56.6%
same,"viability, T/C",[23],64.3%
same,"viability, T/C",[24],56.3%
same,"viability, T/C",[25],49.4%
same,"viability, T/C",[26],44.8%
same,"viability, T/C",[27],51.5%
same,"viability, T/C",[28],50.7%
same,"viability, T/C",[29],61.7%
same,"viability, T/C",[30],43.7%
same,"viability, T/C",[31],40.5%
same,"viability, T/C",[32],41.7%
same,"viability, T/C",[33],39.2%
same,"viability, T/C",[34],53.3%
same,"viability, T/C",[35],48.7%
same,"viability, T/C",[36],45.9%
